These results are taken from article PMC11146149 (RSC Advances, 2024).

The structures appear in SMILES notation.

Common to all, as to assay type: biochemical
One assay has as its target T1, egg albumin (Gallus gallus, UniProt P01012).
T1 sequence (P01012 2-386): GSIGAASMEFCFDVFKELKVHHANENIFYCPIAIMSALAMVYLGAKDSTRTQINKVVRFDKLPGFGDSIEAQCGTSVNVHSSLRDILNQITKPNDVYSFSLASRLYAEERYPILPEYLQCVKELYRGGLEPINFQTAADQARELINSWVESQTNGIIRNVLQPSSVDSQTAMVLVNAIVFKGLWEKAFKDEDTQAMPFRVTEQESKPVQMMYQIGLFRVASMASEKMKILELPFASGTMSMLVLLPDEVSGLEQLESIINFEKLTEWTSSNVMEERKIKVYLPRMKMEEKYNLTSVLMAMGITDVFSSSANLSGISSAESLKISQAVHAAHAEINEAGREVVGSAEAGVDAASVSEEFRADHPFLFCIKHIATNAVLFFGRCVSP
Briefly: Inhibition of protein denaturation method. The note with it: read-out: Inhibition of protein denaturation (%).

The target of the next assay is T2, COX-2 (Homo sapiens, UniProt P35354).
T2 sequence (P35354 18-604): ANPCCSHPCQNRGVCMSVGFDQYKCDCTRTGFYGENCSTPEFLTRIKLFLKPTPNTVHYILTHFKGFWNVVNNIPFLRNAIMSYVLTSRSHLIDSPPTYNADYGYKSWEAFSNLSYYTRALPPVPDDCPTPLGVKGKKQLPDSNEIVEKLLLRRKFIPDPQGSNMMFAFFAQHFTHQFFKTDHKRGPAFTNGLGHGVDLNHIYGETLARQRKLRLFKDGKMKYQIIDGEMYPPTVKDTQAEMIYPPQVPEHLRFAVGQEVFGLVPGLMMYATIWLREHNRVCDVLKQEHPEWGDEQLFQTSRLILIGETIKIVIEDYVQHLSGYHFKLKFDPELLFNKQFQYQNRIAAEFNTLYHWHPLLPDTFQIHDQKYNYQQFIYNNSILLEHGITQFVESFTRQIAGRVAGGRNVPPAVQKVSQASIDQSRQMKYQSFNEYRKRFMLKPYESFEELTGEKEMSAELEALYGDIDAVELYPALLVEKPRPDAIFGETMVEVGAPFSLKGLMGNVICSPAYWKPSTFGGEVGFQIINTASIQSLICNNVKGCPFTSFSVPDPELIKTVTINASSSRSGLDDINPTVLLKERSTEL
Briefly: In vitro COX inhibitory assay. The note with it: for Selectivity index: COX-1/COX-2 selectivity index; for inhibition at 50 µg/mL / inhibition at 100 µg/mL / inhibition at 150 µg/mL: read-out: Inhibition of COX-2 (%); for Inhibition of COX-2 in comparison to indomethacin: result in words.

The next assay addresses T3, COX-1 (Ovis aries, UniProt P05979).
T3 sequence (P05979 25-600): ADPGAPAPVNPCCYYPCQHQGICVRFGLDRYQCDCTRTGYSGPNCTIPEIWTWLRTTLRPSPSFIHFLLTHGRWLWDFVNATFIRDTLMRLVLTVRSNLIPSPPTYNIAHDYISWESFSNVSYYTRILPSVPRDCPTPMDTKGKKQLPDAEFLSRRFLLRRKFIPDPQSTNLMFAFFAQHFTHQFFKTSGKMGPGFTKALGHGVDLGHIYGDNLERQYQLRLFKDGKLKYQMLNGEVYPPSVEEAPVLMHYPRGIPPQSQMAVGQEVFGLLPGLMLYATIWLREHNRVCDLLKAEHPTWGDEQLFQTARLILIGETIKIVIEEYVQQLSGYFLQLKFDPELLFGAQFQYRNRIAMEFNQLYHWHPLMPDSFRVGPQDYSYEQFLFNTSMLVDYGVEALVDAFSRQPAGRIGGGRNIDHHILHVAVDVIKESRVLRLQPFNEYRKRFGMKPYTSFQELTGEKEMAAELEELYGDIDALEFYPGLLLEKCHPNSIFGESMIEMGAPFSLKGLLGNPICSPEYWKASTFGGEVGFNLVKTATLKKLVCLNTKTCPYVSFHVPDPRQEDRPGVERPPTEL
Briefly: In vitro COX inhibitory assay. The note with it: for inhibition at 50 µg/mL / inhibition at 100 µg/mL / inhibition at 150 µg/mL: read-out: Inhibition of COX-1 (%); for Inhibition of COX-1 in comparison to indomethacin: result in words.

On to `NC1=NC(c2ccccc2Cl)n2nc(C(=O)Nc3ccc(S(N)(=O)=O)cc3)nc2N1` (centres unmarked) [Compound 8, 5-Amino-7-(2-chlorophenyl)-N-(4-sulfamoylphenyl)-4,7-dihydro-[1,2,4]-triazolo[1,5-a][1,3,5]triazine-2-carboxamide], for which, at egg albumin, the inhibition at 50 µg/mL came out at 59.5%, the inhibition at 100 µg/mL was determined as 64.2%, the inhibition at 200 µg/mL was 70% and the inhibition at 300 µg/mL worked out at 77.9%. On COX-2, it took 89.3 µM to reach half-maximal inhibition (IC50), the Selectivity index stood at 2.07, the inhibition at 50 µg/mL was found to be 62.64 ± 0.01% and the inhibition at 100 µg/mL was 64.78 ± 0.01%. Also, at COX-2, the inhibition at 150 µg/mL was 71.61 ± 0.01%. Besides, on COX-1, it took 186 µM to reach half-maximal inhibition (IC50), the inhibition at 50 µg/mL turned out to be 30.12 ± 0.02%, the inhibition at 100 µg/mL stood at 55.41 ± 0.05% and the inhibition at 150 µg/mL came out at 71.23 ± 0.05%.
As to `NC1=NC(c2cccc(O)c2)n2nc(C(=O)Nc3ccc(S(N)(=O)=O)cc3)nc2N1` (centres unmarked) [Compound 13, 5-Amino-7-(3-hydroxyphenyl)-N-(4-sulfamoylphenyl)-4,7-dihydro-[1,2,4]-triazolo[1,5-a][1,3,5]triazine-2-carboxamide], on egg albumin, the inhibition at 50 µg/mL turned out to be 55%, the inhibition at 100 µg/mL amounted to 59.8%, the inhibition at 200 µg/mL came out at 65.7% and the inhibition at 300 µg/mL was 73.6%. Further, on COX-2, the “Inhibition of COX-2 in comparison to indomethacin” value (“Inhibition of COX-2 in comparison” below) is “less inhibition”. For the same molecule, on COX-1, the “Inhibition of COX-1 in comparison to indomethacin” value (shortened to “Inhibition of COX-1 in comparison”) was “less inhibition”.
For the molecule `Cc1ccccc1C1N=C(N)Nc2nc(C(=O)Nc3ccc(S(N)(=O)=O)cc3)nn21` (centres unmarked) [Compound 5, 5-Amino-N-(4-sulfamoylphenyl)-7-(o-tolyl)-4,7-dihydro-[1,2,4]-triazolo[1,5-a][1,3,5]triazine-2-carboxamide], on egg albumin, the inhibition at 50 µg/mL is 59.7%, the inhibition at 100 µg/mL amounted to 64.5%, the inhibition at 200 µg/mL worked out at 70.3% and the inhibition at 300 µg/mL turned out to be 78.2%. Moreover, on COX-2, the IC50 is 97.7 µM, the Selectivity index is on record as 1.84, the inhibition at 50 µg/mL amounted to 60.01 ± 0.05% and the inhibition at 100 µg/mL is 67.25 ± 0.02%. At COX-2, the inhibition at 150 µg/mL was found to be 75.31 ± 0.01%. In addition, on COX-1, it took 180 µM to reach half-maximal inhibition (IC50), the inhibition at 50 µg/mL was found to be 32.51 ± 0.03%, the inhibition at 100 µg/mL is 56.64 ± 0.01% and the inhibition at 150 µg/mL turned out to be 74.32 ± 0.03%.
Regarding `NC1=NC(c2ccco2)n2nc(C(=O)Nc3ccc(S(N)(=O)=O)cc3)nc2N1` (centres unmarked) [Compound 4, 5-Amino-7-(furan-2-yl)-N-(4-sulfamoylphenyl)-4,7-dihydro-[1,2,4]-triazolo[1,5-a][1,3,5]triazine-2-carboxamide], on egg albumin, the inhibition at 50 µg/mL is 90.3%, the inhibition at 100 µg/mL came to 95%, the inhibition at 200 µg/mL turned out to be 99.2% and the inhibition at 300 µg/mL stood at 91.3%. Also, at COX-2, half-maximal inhibition (IC50) was put at 69 µM, the Selectivity index was found to be 1.44, the inhibition at 50 µg/mL is 90.03 ± 0.02% and the inhibition at 100 µg/mL amounted to 95.11 ± 0.01%. The inhibition at 150 µg/mL on COX-2 came out at 98.92 ± 0.02%. On COX-1, inhibition was half-maximal at 99.5 µM (IC50), the inhibition at 50 µg/mL is 62.43 ± 0.01%, the inhibition at 100 µg/mL worked out at 80.64 ± 0.01% and the inhibition at 150 µg/mL worked out at 90.02 ± 0.02%.
With `NC1=NC(/C=C/c2ccccc2)n2nc(C(=O)Nc3ccc(S(N)(=O)=O)cc3)nc2N1` (centres unmarked) [Compound 6, (E)-5-Amino-7-styryl-N-(4-sulfamoylphenyl)-4,7-dihydro-[1,2,4]-triazolo[1,5-a][1,3,5]triazine-2-carboxamide], at egg albumin, the inhibition at 50 µg/mL was determined as 53.7%, the inhibition at 100 µg/mL turned out to be 58.4%, the inhibition at 200 µg/mL stood at 67.4% and the inhibition at 300 µg/mL is 72.1%. Besides, at COX-2, the “Inhibition of COX-2 in comparison” value is given as “less inhibition”. In addition, the “Inhibition of COX-1 in comparison” value on COX-1 is “less inhibition”.
Take `COc1ccc(C2N=C(N)Nc3nc(C(=O)Nc4ccc(S(N)(=O)=O)cc4)nn32)cc1` (centres unmarked) [Compound 9, 5-Amino-7-(4-methoxyphenyl)-N-(4-sulfamoylphenyl)-4,7-dihydro-[1,2,4]-triazolo[1,5-a][1,3,5]triazine-2-carboxamide]: on egg albumin, the inhibition at 50 µg/mL was determined as 51%, the inhibition at 100 µg/mL amounted to 55.8%, the inhibition at 200 µg/mL turned out to be 61.6% and the inhibition at 300 µg/mL came out at 69.5%. The “Inhibition of COX-2 in comparison” value on COX-2 was “less inhibition”. The “Inhibition of COX-1 in comparison” value on COX-1 is reported as “less inhibition”.
As to `NC1=NC(c2ccccc2O)n2nc(C(=O)Nc3ccc(S(N)(=O)=O)cc3)nc2N1` (centres unmarked) [Compound 11, 5-Amino-7-(2-hydroxyphenyl)-N-(4-sulfamoylphenyl)-4,7-dihydro-[1,2,4]-triazolo[1,5-a][1,3,5]triazine-2-carboxamide], on egg albumin, the inhibition at 50 µg/mL came to 83.4%, the inhibition at 100 µg/mL worked out at 88.2%, the inhibition at 200 µg/mL was determined as 93.9% and the inhibition at 300 µg/mL stood at 98.2%. On COX-2, the IC50 was 96.7 µM, the Selectivity index is recorded as 1.46, the inhibition at 50 µg/mL stood at 60.3 ± 0.05% and the inhibition at 100 µg/mL was determined as 81.99 ± 0.01%. For the same molecule, on COX-2, the inhibition at 150 µg/mL is 98.97 ± 0.06%. On COX-1, inhibition was half-maximal at 141 µM (IC50), the inhibition at 50 µg/mL was found to be 41.28 ± 0.04%, the inhibition at 100 µg/mL is 63.43 ± 0.04% and the inhibition at 150 µg/mL came to 80.12 ± 0.03%.
With `CN(C)c1ccc(C2N=C(N)Nc3nc(C(=O)Nc4ccc(S(N)(=O)=O)cc4)nn32)cc1` (centres unmarked) [Compound 12, 5-Amino-7-(4-(dimethylamino)phenyl)-N-(4-sulfamoylphenyl)-4,7-dihydro-[1,2,4]-triazolo[1,5-a][1,3,5]triazine-2-carboxamide], at egg albumin, the inhibition at 50 µg/mL turned out to be 55.8%, the inhibition at 100 µg/mL was 60.5%, the inhibition at 200 µg/mL was found to be 66.3% and the inhibition at 300 µg/mL amounted to 74.2%. Further, at COX-2, the IC50 is 92.9 µM, the Selectivity index amounted to 2.06, the inhibition at 50 µg/mL turned out to be 59.1 ± 0.01% and the inhibition at 100 µg/mL was determined as 80.98 ± 0.02%. Also, the inhibition at 150 µg/mL at COX-2 came out at 98.4 ± 0.02%. At COX-1, the IC50 is 192 µM, the inhibition at 50 µg/mL is 28.64 ± 0.04%, the inhibition at 100 µg/mL stood at 53.24 ± 0.03% and the inhibition at 150 µg/mL is 70.68 ± 0.04%.
As for `NC1=NC(c2cccc3ccccc23)n2nc(C(=O)Nc3ccc(S(N)(=O)=O)cc3)nc2N1` (centres unmarked) [Compound 10, 5-Amino-7-(naphthalen-1-yl)-N-(4-sulfamoylphenyl)-4,7-dihydro-[1,2,4]-triazolo[1,5-a][1,3,5]triazine-2-carboxamide], at egg albumin, the inhibition at 50 µg/mL stood at 55%, the inhibition at 100 µg/mL stood at 59.7%, the inhibition at 200 µg/mL is 65.5% and the inhibition at 300 µg/mL is 73.4%. Further, the “Inhibition of COX-2 in comparison” value on COX-2 is “less inhibition”. Besides, the “Inhibition of COX-1 in comparison” value on COX-1 is given as “less inhibition”.
Take `NC1=NC(C2N=C(N)Nc3nc(C(=O)Nc4ccc(S(N)(=O)=O)cc4)nn32)n2nc(C(=O)Nc3ccc(S(N)(=O)=O)cc3)nc2N1` (centres unmarked) [Compound 7, 5,5′-Diamino-N2,N2′-bis(4-sulfamoylphenyl)-4,4′,7,7′-tetrahydro-[7,7′-bi[1,2,4]triazolo[1,5-a][1,3,5]triazine]-2,2′-dicarboxamide]: at egg albumin, the inhibition at 50 µg/mL was found to be 54.7%, the inhibition at 100 µg/mL is 59.5%, the inhibition at 200 µg/mL was found to be 65.3% and the inhibition at 300 µg/mL was 73.2%. The “Inhibition of COX-2 in comparison” value at COX-2 is “less inhibition”. For the same molecule, at COX-1, the “Inhibition of COX-1 in comparison” value is listed as “less inhibition”.
